A word on the IC50: it is the concentration at which inhibition is half-maximal. As usually defined, the AC50 is the midpoint of the concentration-response curve, whichever way the signal moves.

Counter-ions that a name gives are not always drawn. Like-named read-outs stand apart in the source and are kept apart here.

Holding throughout (format): cell-based, human
The test system of assay [1] is HTT mRNA. Kind of assay: Splicing RT-qPCR assay, HTT canonical (CJ) and alternative (AJ) junction mRNA. The conditions noted are these: Homo sapiens, A673 or K562 cells, 24 hours compound treatment; for IC50: 24 h, read-out: HTT CJ (IC50, decrease in canonical junction mRNA); for AC50: read-out: HTT AJ (AC50, increase in alternative junction mRNA). The gist of the method: (§1)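 One-step RT-qPCR on cell lysates, CJ and AJ isoforms quantified; housekeeping normalization GAPDH/GUSB (K562) or PPIA (A673). Cells: A673 in DMEM/10% FBS or K562 in IMDM/10% FBS. Compounds 11-pt 3-fold, top 10 uM, 24 h, 37 °C, 5% CO2.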
Background: Quantitative PCR measures a nucleic acid by following its amplification.

Another assay concerns MYB mRNA. Kind of assay: Splicing RT-qPCR assay, MYB canonical (CJ) and alternative (AJ) junction mRNA. The note with it: Homo sapiens; for AC50: read-out: MYB AJ (AC50, increase in alternative junction mRNA). The gist of the method:
as §1

The subject of another assay is SMN2 mRNA. Kind of assay: Splicing RT-qPCR gene panel, SMN2 canonical junction (CJ) mRNA. The note with it: Homo sapiens, Tables 4A/4B, read-out: SMN2 (IC50, decrease in CJ mRNA, gene panel). The gist of the method:
(§2)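 Cells (A673 in DMEM/10% FBS, K562 in IMDM/10% FBS) got compound for 24 h, top dose 10 uM, 11 points, 3-fold steps, DMSO ≤0.25%. Lysates went to RT-qPCR for the canonical exon-exon junction; ΔΔCt against housekeeper and DMSO gave RQ, then percentage response.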

In a further assay the test system is Target C mRNA. Kind of assay: Splicing RT-qPCR gene panel, Target C canonical junction (CJ) mRNA. The note with it: Homo sapiens, Tables 4A/4B, read-out: Target C (IC50, decrease in CJ mRNA, gene panel). The gist of the method: as §2
Assay [2] concerns HTT mRNA. Kind of assay: Splicing RT-qPCR gene panel, HTT canonical junction (CJ) mRNA. The note with it: Homo sapiens, Tables 4A/4B, read-out: HTT (IC50, decrease in CJ mRNA, gene panel). Summed up: as §2
[3] abbreviates: 24 h, A673 or K562 cells, 24 hours compound treatment, RT-qPCR.
The mark [4] stands for this setting: 24 h, A673 or K562 cells, 24 hours compound treatment, RT-qPCR, read-out: MYB CJ (IC50, decrease in canonical junction mRNA).
[5] abbreviates: Tables 4A/4B, canonical junction qPCR panel, read-out: MYB (IC50, decrease in CJ mRNA, gene panel).

With `Cc1cn2cc(NC(=O)c3ccc(N4CCC5(CCN5)CC4)c4cn(C)nc34)cc(F)c2n1` [Compound 301, 4-{1,7-diazaspiro[3.5]nonan-7-yl}-N-{8-fluoro-2-methylimidazo[1,2-a]pyridin-6-yl}-2-methylindazole-7-carboxamide trifluoroacetic acid salt], the IC50 with HTT mRNA [1] is 100 to 1000 nM; with MYB mRNA (setting [4]), < 100 nM; with MYB mRNA (setting [5]), < 100 nM; in the assay on SMN2 mRNA, < 100 nM; in the assay on Target C mRNA, 1000 to 10000 nM; in the assay on HTT mRNA [2] it was 100 to 1000 nM. Besides, the AC50 in the assay with HTT mRNA [1] is 100 to 1000 nM; with MYB mRNA (setting [3]), < 100 nM.
Regarding `COCCCn1cc2c(N3CCNCC3)ccc(C(=O)Nc3cc(F)c4nc(C)cn4c3)c2n1` [Compound 302, N-{8-fluoro-2-methylimidazo[1,2-a]pyridin-6-yl}-2-(3-methoxypropyl)-4-(piperazin-1-yl)indazole-7-carboxamide], the IC50 was 1000 to 10000 nM with HTT mRNA [1]; < 100 nM in the assay on MYB mRNA (setting [4]); < 100 nM in the assay with MYB mRNA (setting [5]); < 100 nM in the assay with SMN2 mRNA; > 10000 nM with Target C mRNA; 1000 to 10000 nM in the assay with HTT mRNA [2]. The values for the AC50 in the assay on HTT mRNA [1] and in the assay on MYB mRNA (setting [3]) were 1000 to 10000 nM and < 100 nM, respectively.
Turning to `Cc1cn2cc(NC(=O)c3cc(F)c(N4CCNCC4)c4cn(C)nc34)cc(F)c2n1` [Compound 303, 5-fluoro-N-{8-fluoro-2-methylimidazo[1,2-a]pyridin-6-yl}-2-methyl-4-(piperazin-1-yl)indazole-7-carboxamide], the IC50 with HTT mRNA [1] is 1000 to 10000 nM; with MYB mRNA (setting [4]), 100 to 1000 nM; in the assay on MYB mRNA (setting [5]), 100 to 1000 nM; with SMN2 mRNA it was < 100 nM; in the assay on Target C mRNA it was > 10000 nM; in the assay on HTT mRNA [2], 1000 to 10000 nM. Besides, the AC50 in the assay on HTT mRNA [1] was in the range of 1000 to 10000 nM; with MYB mRNA (setting [3]) it was 100 to 1000 nM.
Turning to `Cc1cn2cc(NC(=O)c3ccc(N4CCNCC4)c4cn(C5CCOCC5)nc34)cc(F)c2n1` [Compound 304, N-{8-fluoro-2-methylimidazo[1,2-a]pyridin-6-yl}-2-(oxan-4-yl)-4-(piperazin-1-yl) indazole-7-carboxamide trifluoroacetic acid salt], the IC50 in the assay on HTT mRNA [1] was 1000 to 10000 nM; in the assay with MYB mRNA (setting [4]) it was 100 to 1000 nM; with MYB mRNA (setting [5]), 100 to 1000 nM; with SMN2 mRNA, < 100 nM; with Target C mRNA, > 10000 nM; in the assay with HTT mRNA [2] it was 1000 to 10000 nM. The half-maximal activity concentration (AC50) was > 10000 nM with HTT mRNA [1] and 100 to 1000 nM with MYB mRNA (setting [3]).
As to `Cc1cn2cc(NC(=O)c3ccc(N4CCNCC4)c4cn(CCF)nc34)cc(F)c2n1` [Compound 305, N-{8-fluoro-2-methylimidazo[1,2-a]pyridin-6-yl}-2-(2-fluoroethyl)-4-(piperazin-1-yl)indazole-7-carboxamide], the IC50 was 1000 to 10000 nM with HTT mRNA [1]; 100 to 1000 nM in the assay on MYB mRNA (setting [4]); 100 to 1000 nM in the assay on MYB mRNA (setting [5]); < 100 nM in the assay on SMN2 mRNA; > 10000 nM in the assay on Target C mRNA; 1000 to 10000 nM in the assay on HTT mRNA [2]. The results for the AC50 with HTT mRNA [1] and in the assay on MYB mRNA (setting [3]) were 1000 to 10000 nM and 100 to 1000 nM, respectively.
Take `COCCn1cc2c(N3C[C@@H](C)N[C@@H](C)C3)ccc(C(=O)Nc3cc(F)c4nc(C)cn4c3)c2n1` [Compound 306, 4-[(3R,5S)-3,5-dimethylpiperazin-1-yl]-N-{8-fluoro-2-methylimidazo[1,2-a]pyridin-6-yl}-2-(2-methoxyethyl) indazole-7-carboxamide]: the IC50 in the assay with HTT mRNA [1] is 1000 to 10000 nM; with MYB mRNA (setting [4]), 100 to 1000 nM; in the assay with MYB mRNA (setting [5]), 100 to 1000 nM; in the assay with SMN2 mRNA, < 100 nM; with Target C mRNA it was > 10000 nM; with HTT mRNA [2], 1000 to 10000 nM. Moreover, the AC50 was 1000 to 10000 nM in the assay on HTT mRNA [1] and < 100 nM in the assay with MYB mRNA (setting [3]).
In the case of `CCNC1CCN(c2ccc(C(=O)Nc3cc(F)c4nc(C)cn4c3)c3nn(CCOC)cc23)CC1` [Compound 307, 4-[4-(ethylamino)piperidin-1-yl]-N-{8-fluoro-2-methylimidazo[1,2-a]pyridin-6-yl}-2-(2-methoxyethyl) indazole-7-carboxamide], the IC50 was 1000 to 10000 nM in the assay with HTT mRNA [1]; 100 to 1000 nM with MYB mRNA (setting [4]); 100 to 1000 nM in the assay with MYB mRNA (setting [5]); < 100 nM in the assay on SMN2 mRNA; > 10000 nM in the assay on Target C mRNA; 1000 to 10000 nM in the assay on HTT mRNA [2]. For the same compound, the AC50 in the assay with HTT mRNA [1] is 1000 to 10000 nM; in the assay with MYB mRNA (setting [3]) it was 100 to 1000 nM.
In the case of `Cc1cn2cc(NC(=O)c3ccc(N4CCNCC4)c4cn(CC5(C)COC5)nc34)cc(F)c2n1` [Compound 308, N-{8-fluoro-2-methylimidazo[1,2-a]pyridin-6-yl}-2-[(3-methyloxetan-3-yl)methyl]-4-(piperazin-1-yl)indazole-7-carboxamide], the half-maximal inhibitory concentration (IC50) with HTT mRNA [1], in the assay with MYB mRNA (setting [4]), with MYB mRNA (setting [5]), in the assay on SMN2 mRNA, with Target C mRNA and in the assay with HTT mRNA [2] was > 10000 nM each time. The AC50 with HTT mRNA [1] and in the assay on MYB mRNA (setting [3]) was > 10000 nM in each case.

These data come from patent US20250154169A1, “COMPOUNDS AND METHODS FOR MODULATING SPLICING” (REMIX THERAPEUTICS INC., priority 2021, published 2025).
